Consider 26 molecules from patent publication US5574043A, “Certain [1,2,5-thiadiazol-4-yl]-1-azabicyclo [3.2.1]octane derivatives and their pharmaceutical uses” (Novo Nordisk A/S, priority 1995, dated 1996).

Where a name gives a salt, the structure may show the parent alone.

In this assay the target is muscarinic acetylcholine receptors. Description: Inhibition of specific binding of 3H-Oxotremorine-M (OXO BINDING) in vitro, rat cortex. More on the design: species or system male Wistar rats. The conditions noted are these: rat cortex homogenate, 3H-Oxotremorine 1.0 nM, 30 min at 25° C., pH 7.4. From the text: The pharmacological properties of the compounds of the invention can be illustrated by determining their capability to inhibit the specific binding of ^3 H-Oxotremorine-M (^3 H-Oxo). Birdsdall N. J. M., Hulme E. C., and Burgen A. S. V. (1980). "The Character of Muscarinic Receptors in Different Regions of the Rat Brain". Proc. Roy. Soc. London (Series B) 207,1.
^3 H-Oxo labels muscarinic receptor in the CNS (with a preference for agonist domains of the receptors). Three different sites are labelled by ^3 H-Oxo. […] Using the present experimental conditions only the high and medium affinity sites are determined.
The inhibitory effects of compounds on ^3 H-Oxo binding reflects the affinity for muscarinic acetylcholine receptors.
All preparations are performed at 0°-4° C. unless otherwise indicated. Fresh cortex (0.1-1 g) from male Wistar rats (150-250 g) is homogenized for 5-10 s in 10 ml 20 mM Hepes pH: 7.4, with an Ultra-Turrax homogenizer. The homogenizer, is rinsed with 10 ml of buffer and the combined suspension centrifuged for 15 min at 40,000×g. The pellet is washed three times with buffer. In each step the pellet is homogenized as before in 2×10 ml of buffer and centrifuged for 10 min at 40,000×g.
The final pellet is homogenized in 20 mM Hepes pH: 7.4 (100 ml per g of original tissue) and used for binding assay. Aliquots of 0.5 ml is added 25 μl of test solution and 25 μl of ^3 H-Oxotremorine (1.0 nM, final concentration) mixed and incubated for 30 min at 25° C. Non-specific binding is determined in triplicate using arecoline (1 μg/ml, final concentration) as the test substance. After incubation samples are added 5 ml of ice-cold buffer and poured directly onto Whatman GF/C glass fibre filters under suction and immediately washed 2 times with 5 ml of ice-cold buffer. The amount of radioactivity on the filters are determined by conventional liquid scintillation counting. Specific binding is total binding minus non specific binding.
Test substances are dissolved in 10 ml water (if necessary heated on a steam bath for less than 5 minutes) at a concentration of 2.2 mg/ml.
The test value will be given as IC50 (the concentration (ng/ml) of the test substance which inhibits the specific binding of ^3 H-Oxo by 50%).
IC50 =(applied test substance concentration) [formula] where Co is specific binding in control assays and Cx is the specific binding in the test assay. (The calculations assume normal mass-action kinetics).
`CCCCCSc1nsnc1[C@H]1CN2CCC[C@H]1C2` (relative stereo) [Compound 31, Exo-6-(3-pentylthio-1,2,5-thiadiazol-4-yl)-1-azabicyclo[3.2.1]octane oxalate]: the “Inhibition in vitro OXO BINDING IC50” value was 0.6 ng/mL.

With `CCSc1nsnc1[C@H]1CN2CCC[C@H]1C2` (relative stereo) [Compound 32, Exo-6-(3-ethylthio-1,2,5-thiadiazol-4-yl)-1-azabicyclo[3.2.1]octane oxalate], the “Inhibition in vitro OXO BINDING IC50” value was 0.45 ng/mL.

In the case of `CCCCCSc1nsnc1[C@@H]1CN2CC[C@H]1C2` (relative stereo) [Compound 33, Endo-3-(3-pentylthio-1,2,5-thiadiazol-4-yl)-1-azabicyclo[2.2.1]heptane fumarate], the “Inhibition in vitro OXO BINDING IC50” value was determined as 6.4 ng/mL.

Consider `CCCCCCSc1nsnc1[C@@H]1CN2CC[C@H]1C2` (relative stereo) [Compound 34, Endo-3-(3-hexylthio-1,2,5-thiadiazol-4-yl)-1-azabicyclo[2.2.1]heptane fumarate], for which the “Inhibition in vitro OXO BINDING IC50” value came out at 7.9 ng/mL.

Turning to `c1ccc(CCCSc2nsnc2[C@@H]2CN3CC[C@H]2C3)cc1` (relative stereo) [Compound 35, Endo-3-(3-(3-phenylpropylthio)-1,2,5-thiadiazol-4-yl)-1-azabicyclo[2.2.1]heptane oxalate], the “Inhibition in vitro OXO BINDING IC50” value worked out at 1.9 ng/mL.

Take `CCCCSc1nsnc1[C@@H]1CN2CC[C@H]1C2` (relative stereo) [Compound 36, Endo-3-(3-butylthio-1,2,5-thiadiazol-4-yl)-1-azabicyclo[2.2.1]heptane fumarate]: the “Inhibition in vitro OXO BINDING IC50” value stood at 0.82 ng/mL.

Regarding `CCCSc1nsnc1[C@@H]1CN2CC[C@H]1C2` (relative stereo) [Compound 37, Endo:3-(3-propylthio-1,2,5-thiadiazol-4-yl)-1-azabicyclo[2.2.1]heptane oxalate], the “Inhibition in vitro OXO BINDING IC50” value stood at 2.0 ng/mL.

For `CCCCCCSc1nsnc1[C@H]1CN2CC[C@H]1C2` (relative stereo) [Compound 39, Exo-3-(3-hexylthio-1,2,5-thiadiazol-4-yl)-1-azabicyclo[2.2.1]heptane oxalate], the “Inhibition in vitro OXO BINDING IC50” value was determined as 0.52 ng/mL.

As to `CCCSc1nsnc1[C@H]1CN2CC[C@H]1C2` (relative stereo) [Compound 40, Exo-3-(3-propylthio-1,2,5-thiadiazol-4-yl)-1-azabicyclo[2.2.1]heptane oxalate], the “Inhibition in vitro OXO BINDING IC50” value came to 0.19 ng/mL.

For the molecule `c1ccc(CCCSc2nsnc2[C@H]2CN3CC[C@H]2C3)cc1` (relative stereo) [Compound 41, Exo-3-(3-(3-phenylpropylthio)-1,2,5-thiadiazol-4-yl)-1-azabicyclo[2.2.1]heptane oxalate], the “Inhibition in vitro OXO BINDING IC50” value amounted to 0.56 ng/mL.

Turning to `CCCCSc1nsnc1[C@H]1CN2CC[C@H]1C2` (relative stereo) [Compound 42, Exo-3-(3-butylthio-1,2,5-thiadiazol-4-yl)-1-azabicyclo[2.2.1]heptane oxalate], the “Inhibition in vitro OXO BINDING IC50” value was 0.35 ng/mL.

As to `CCCSc1nsnc1[C@H]1CN2CCC[C@@H]1C2` (relative stereo) [Compound 57, Endo-6-(3-propylthio-1,2,5-thiadiazol-4-yl)-1-azabicyclo[3.2.1]octane oxalate], the “Inhibition in vitro OXO BINDING IC50” value amounted to 4.6 ng/mL.

As for `CSc1nsnc1[C@H]1CN2CCC[C@H]1C2` (relative stereo) [Compound 74, Exo-6-(3-methylthio-1,2,5-thiadiazol-4-yl)-1-azabicyclo[3.2.1]octane oxalate], the “Inhibition in vitro OXO BINDING IC50” value amounted to 0.45 ng/mL.

In the case of `CCCCCCCSc1nsnc1[C@H]1CN2CCC[C@H]1C2` (relative stereo) [Compound 75, Exo-6-(3-heptylthio-1,2,5-thiadiazol-4-yl)-1-azabicyclo[3.2.1]octane oxalate], the “Inhibition in vitro OXO BINDING IC50” value was determined as 0.96 ng/mL.

As for `CC(C)CCCSc1nsnc1[C@H]1CN2CCC[C@H]1C2` (relative stereo) [Compound 76, Exo-6-(3-isohexylthio-1,2,5-thiadiazol-4-yl)-1-azabicyclo[3.2.1]octane oxalate], the “Inhibition in vitro OXO BINDING IC50” value was found to be 2.6 ng/mL.

Consider `CC(C)CCSc1nsnc1[C@H]1CN2CCC[C@H]1C2` (relative stereo) [Compound 77, Exo-6-(3-isopentylthio-1,2,5-thiadiazol-4-yl)-1-azabicyclo[3.2.1]octane], for which the “Inhibition in vitro OXO BINDING IC50” value is 0.89 ng/mL.

Take `N#CCCCCSc1nsnc1[C@H]1CN2CCC[C@H]1C2` (relative stereo) [Compound 78, Exo-6-(3-(4-cyanobutylthio)-1,2,5-thiadiazol-4-yl)-1-azabicyclo[3.2.1]octane oxalate]: the “Inhibition in vitro OXO BINDING IC50” value is 0.30 ng/mL.

For the molecule `N#CCSc1nsnc1[C@H]1CN2CCC[C@H]1C2` (relative stereo) [Compound 79, Exo-6-(3-cyanomethylthio-1,2,5-thiadiazol-4-yl)-1-azabicyclo[3.2.1]octane oxalate], the “Inhibition in vitro OXO BINDING IC50” value came out at 0.50 ng/mL.

As to `N#CCCSc1nsnc1[C@H]1CN2CCC[C@H]1C2` (relative stereo) [Compound 80, Exo-6-(3-(2-cyanoethylthio)-1,2,5-thiadiazol-4-yl)-1-azabicyclo[3.2.1]octane oxalate], the “Inhibition in vitro OXO BINDING IC50” value turned out to be 0.30 ng/mL.

On to `N#CCCCSc1nsnc1[C@H]1CN2CCC[C@H]1C2` (relative stereo) [Compound 81, Exo-6-(3-(3-cyanopropyithio)-1,2,5-thiadiazol-4-yl)-1-azabicyclo[3.2.1]octane oxalate], for which the “Inhibition in vitro OXO BINDING IC50” value is 0.40 ng/mL.

As for `N#Cc1ccc(CSc2nsnc2[C@H]2CN3CCC[C@H]2C3)cc1` (relative stereo) [Compound 82, Exo-6-(3-(4-cyanobenzylthio)-1,2,5-thiadiazol-4-yl)-1-azabicyclo[3.2.1]octane oxalate], the “Inhibition in vitro OXO BINDING IC50” value amounted to 0.40 ng/mL.

Turning to `c1ccc(CCCSc2nsnc2[C@H]2CN3CCC[C@H]2C3)cc1` (relative stereo) [Compound 83, Exo-6-(3-(3-phenylpropylthio)-1,2,5-thiadiazol-4-yl)-1-azabicyclo[3.2.1]octane oxalate], the “Inhibition in vitro OXO BINDING IC50” value was 0.43 ng/mL.

Regarding `c1ccc(OCCSc2nsnc2[C@@H]2CN3CCC[C@H]2C3)cc1` (relative stereo) [Compound 84, Endo-6-(3-(2-phenoxyethylthio)-1,2,5-thiadiazol-4-yl)-1-azabicyclo[3.2.1]octane oxalate], the “Inhibition in vitro OXO BINDING IC50” value turned out to be 13 ng/mL.

Consider `CSc1nsnc1[C@@H]1CN2CCC[C@H]1C2` (relative stereo) [Compound 85, Endo-6-(3-methylthio-1,2,5-thiadiazol-4-yl)-1-azabicyclo[3.2.1]octane oxalate], for which the “Inhibition in vitro OXO BINDING IC50” value was 7.2 ng/mL.

Take `CC(C)CCSc1nsnc1[C@@H]1CN2CCC[C@H]1C2` (relative stereo) [Compound 86, Endo-6-(3-isopentylthio-1,2,5-thiadiazol-4-yl)-1-azabicyclo[3.2.1]octane oxalate]: the “Inhibition in vitro OXO BINDING IC50” value stood at 3.5 ng/mL.

For `CC(C)CCCSc1nsnc1[C@H]1CN2CCC[C@@H]1C2` (relative stereo) [Compound 87, Endo-6-(3-isohexylthio-1,2,5-thiadiazol-4-yl)-1-azabicyclo[3.2.1]octane oxalate], the “Inhibition in vitro OXO BINDING IC50” value stood at 10 ng/mL.
